Assay in all cases: NCI-60 cell line screen, 48 h
Experiment [1] has as its system NCI-H226 lung.
Experiment [2] has as its system CCRF-CEM leukemia.
Experiment [3] relates to SF-295 CNS.
The subject of experiment [4] is HCT-15 colon.
In experiment [5] the test system is SN12C renal.
The test system of experiment [6] is HCT-116 colon.
Experiment [7] relates to BT-549 breast.
Experiment [8] has as its system M14 melanoma.
Experiment [9] relates to NCI-H522 lung.
The test system of experiment [10] is RPMI-8226 leukemia.

Each structure is given as a SMILES string.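 96-well plates; 48 h exposure; 5 concentrations. Endpoints by linear interpolation between flanking doses. Not reached: highest tested concentration assigned. GI50 marks 50% less growth. The concentration for full growth arrest is given as TGI.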

Turning to `CCOC(=O)c1ccc(NC(=O)Nc2nncs2)cc1`, the GI50 was 1.09 µM in experiment [1]; 0.23 µM in experiment [2]; 0.262 µM in experiment [3]; 0.0688 µM in experiment [4]; 0.662 µM in experiment [5]; 0.109 µM in experiment [6]. Besides, the GI50 in experiment [7] was 0.735 µM; in [8] it was 0.104 µM; in [9], 0.0746 µM; in experiment [10], 0.499 µM. Further, the TGI is 19.5 µM in [1]; above 52.7 µM in experiment [2]; 0.988 µM in experiment [3]; above 100 µM in experiment [4]; 16.1 µM in experiment [5]; 11.8 µM in [6]. Moreover, the TGI in [7] turned out to be 13.3 µM; in experiment [8], 3.02 µM; in experiment [9], 1.87 µM; in [10] it was 10.2 µM.
Consider `Cc1cc2nc3c4cc(O)ccc4n(CCN(C)C)c3nc2cc1C`, for which the GI50 in experiment [1] is 1.18 µM; in experiment [2], 0.518 µM; in [3] it was 0.573 µM; in [4], 0.611 µM; in experiment [5] it was 0.586 µM; in [6], 0.397 µM. Further, the GI50 is 2.03 µM in experiment [7], 0.523 µM in experiment [8], 0.541 µM in [9] and 0.417 µM in experiment [10]. Also, the TGI in [1] is 5.45 µM; in experiment [2], 6 µM; in experiment [3], 2.49 µM; in experiment [4], 4.1 µM; in experiment [5] it was 12.4 µM; in [6], 3.36 µM. Moreover, the TGI came to 6.27 µM in [7], 1.91 µM in experiment [8], 3.32 µM in [9] and 2.63 µM in experiment [10].
As to `COC(=O)c1n[nH]c(C)c1N=NN(C)CCC#N`, the TGI turned out to be 35.8 µM in experiment [1]; 41.5 µM in experiment [2]; 73.4 µM in [3]; 32.1 µM in [4]; 33.8 µM in experiment [5]; 46.3 µM in [6]. In addition, the TGI was 28.6 µM in experiment [7], above 100 µM in [8], 25.1 µM in experiment [9] and 34.9 µM in experiment [10].
In the case of `COc1cc(/C=C\c2cc(OC)c(OC)c(OC)c2)cc(N/C=C\C(=O)c2ccc(OC(F)(F)F)cc2)c1OC`, the GI50 was 19.9 µM in experiment [1]; 3.55 µM in [2]; 4.12 µM in experiment [3]; 3.42 µM in [4]; 4.85 µM in [5]; 3.58 µM in [6]. In addition, the GI50 is 5.9 µM in experiment [7], 3.46 µM in experiment [8], 1.96 µM in experiment [9] and 3.66 µM in experiment [10]. The TGI in experiment [1] was above 100 µM; in [2] it was above 100 µM; in [3], 30.9 µM; in experiment [4], above 100 µM; in experiment [5], above 100 µM; in [6] it was above 100 µM. Besides, the TGI is above 100 µM in experiment [7], above 100 µM in experiment [8], 6.19 µM in experiment [9] and 19.6 µM in experiment [10].
On to `CC(C)(CN1CCCCC1)C(=O)/C=C/c1ccc(/C=C/C(=O)C(C)(C)CN2CCCCC2)cc1`, for which the TGI is 3.77 µM in experiment [1]; 0.234 µM in experiment [2]; 1.68 µM in experiment [3]; 0.703 µM in experiment [4]; 0.589 µM in experiment [5]; 1.1 µM in experiment [6]. The TGI was 3.35 µM in experiment [7], 3.26 µM in experiment [8], 0.167 µM in experiment [9] and 0.663 µM in [10].
Turning to `O=Nc1ccc(O)c(=O)cc1`, the GI50 in experiment [1] is 2.5 µM; in [2], 0.264 µM; in [3], 26.1 µM; in experiment [4] it was 2.37 µM; in experiment [5] it was 2.95 µM; in experiment [6], 0.961 µM. Besides, the GI50 was 2.86 µM in experiment [7], 2.52 µM in [8], 0.141 µM in [9] and 1.05 µM in [10]. Besides, the TGI in [1] worked out at 8.64 µM; in experiment [2] it was 1.19 µM; in [3] it was 79.2 µM; in experiment [4], 9.62 µM; in experiment [5], 12.4 µM; in experiment [6], 3.49 µM. For the same compound, the TGI in experiment [7] was 8.75 µM; in [8], 7.01 µM; in experiment [9], 0.524 µM; in experiment [10] it was 3.97 µM.
For the compound `CS(=O)(=O)Nc1cncc(-c2ccc3ncnc(Nc4ccc(F)c(Cl)c4)c3c2)c1`, the GI50 in experiment [1] is 2.57 µM; in experiment [2], 1.38 µM; in experiment [3] it was 2.79 µM; in [4], 3.66 µM; in experiment [5] it was 2.6 µM; in experiment [6] it was 1.97 µM. Also, the GI50 in experiment [7] was 1.9 µM; in [8], 3.33 µM; in experiment [9] it was 1.01 µM; in experiment [10], 2.24 µM. Also, the TGI in [1] worked out at 21.3 µM; in [2], 13 µM; in experiment [3], 13 µM; in experiment [4] it was 16 µM; in [5], 15.2 µM; in experiment [6], 5.77 µM. Moreover, the TGI is 7.98 µM in experiment [7], 15.1 µM in experiment [8], 4.1 µM in [9] and 5.42 µM in experiment [10].
Take `CC(=O)Nc1ccc2c(c1)C(c1ccccc1Cl)=Nc1c(n[nH]c1C)N2`: the GI50 in experiment [1] was 0.57 µM; in experiment [2] it was 12.2 µM; in [3] it was 8.22 µM; in [4], 10.8 µM; in [5], 5.05 µM; in [6] it was 2.49 µM. The GI50 was 6.58 µM in experiment [7], above 25 µM in [8], above 15.9 µM in experiment [9] and above 25 µM in experiment [10]. Also, the TGI in [1] was above 17.7 µM; in experiment [2], above 25 µM; in experiment [3], above 25 µM; in experiment [4] it was above 25 µM; in experiment [5] it was above 25 µM; in experiment [6] it was above 25 µM. Also, the TGI in experiment [7], in experiment [8], in experiment [9] and in [10] was above 25 µM each time.

(Values after PubChem BioAssay (NCI).)
